Data set [1] concerns metrazol-induced convulsion. The note with it: metrazol-induced convulsion model, ref Sridhar et al., 2002, cited from earlier work.
Data set [2] concerns Albino mice. Type of data set: in vivo. Particulars: 100 mg/kg i.p.; with respect to control.
The test system of data set [3] is mice. Type of data set: in vivo. Particulars: rotarod; doses up to 300 mg/kg; 0.5 and 4.0 h. For orientation: In the rotarod test animals must keep their balance on a rotating rod.

We go through 5 compounds from paper PMC4464186 (EXCLI Journal, 2014).

SMILES strings stand for the structures.

For the compound `Cc1ccc2c(c1)C(=Nc1ccc(Cl)cc1)C(=O)N2` [3-(4-Chlorophenylimino)-5-methyl-1,3-dihydro-indol-2-one], in data set [1] (at 100 mg kg^-1), the protection is on record as 87%. In addition, in data set [1], the median effective dose (ED50) was 53.61 mg/kg. In the case of `Cn1c2nc(=O)[nH]nc2c2cc(Br)cc(Br)c21` [5k, 6,8-dibromo-5-methyl-2H-[1,2,4]triazino[5,6-b]indol-3(5H)-one], the “% Increased of immobility” value in data set [2] is recorded as 45.96%. As for `O=c1nc2[nH]c3ccc(Cl)cc3c2n[nH]1` [5e, 8-chloro-2H-[1,2,4]triazino[5,6-b]indol-3(5H)-one], in data set [3], the “neurotoxicity (motor impairment), in words” value is reported as “no motor impairment effect”. Also, in data set [2], the “% Increased of immobility” value turned out to be 54.39%. In the case of `NC(=O)N1c2ccccc2C=Cc2ccccc21` [Carbamazepine, reference compound], the “% Increased of immobility” value in data set [2] is 58.63%.

Take `O=c1nc2[nH]c3c(Br)cc(Br)cc3c2n[nH]1` [5i, 6,8-dibromo-2H-[1,2,4]triazino[5,6-b]indol-3(5H)-one]: in data set [2], the “% Increased of immobility” value is 37.68%.

What is called ED50 is the midpoint of the dose-response relation.
